Results reported in patent publication US7968556B2, “Heteroaryl compounds, compositions thereof, and methods of treatment therewith” (Signal Pharmaceuticals, LLC, priority 2006, dated 2011).

Key:
Syk = target: T1, Syk (Homo sapiens, UniProt P43405); experiment: Syk HTRF Assay; assay type: biochemical
T1 construct: purchased Cama Biosciences (so in the source)
Method: 5 μl/well DMSO is added to Column 2 Wells A-0 and 29.5 μl to well P2 of Greiner 384-well polypropylene plate. 20 μl/well DMSO is added to Columns 1 and 3-12.
25 mM compound solutions are prepared by the addition of 25 μl of 30 mM compound to Column 2 and 0.5 μl 30 mM reference control to well P2.
Serial dilution is then performed by the following steps: (i) compounds in Column 2 are mixed by pipetting 20 μl up and down 6×; (ii) 10 μl/well compounds in DMSO are transferred from one column to the next column for Columns 2-11; (iii) wells are mixed by pipetting 20 μl up and down 6×; (iv) tips washed 3×25 μl DMSO, 2×25 μl next DMSO.
(§1) The following buffers are prepared:
Dilution Buffer: 50 mM HEPES pH 7.6; 1 mM DTT; 10 mM MgCl2; 0.01% Triton X100; 0.01% BSA; 0.1 mM EDTA.
Enzyme Mix in Dilution Buffer: 8.621 ng/ml Syk (Cama Biosciences 08-176).
Start Mix in Dilution Buffer: 87.5 μM ATP; 80 nM Substrate Peptide (American Peptide Company 332722).
14.5 μl/well Enzyme Mix or Dilution Buffer (Background Controls) is added to Costar 384-well black plates.
Compound addition and mixture is performed by the following steps: (i) 0.5 μl/well DMSO/compounds in DMSO transferred from Greiner 384-well polypropylene plate to left half of assay plate containing 14.5 μl/well Enzyme Mix and Dilution Buffer; (ii) Mix by pipetting 10 μl up and down 4×; (iii) tips are washed 4×10 μl in DMSO, 2×20 μl in other DMSO; (iv) steps i-iii are repeated with transfer to right half of assay plate; (v) steps i-iv are repeated with each compound/assay plate until all plates are completed.
10 μl/well Start Mix is added and incubated at room temperature on shaker for 2 minutes (1 hour total reaction time).
Stop Solution in Dilution Buffer: 120 mM EDTA
Antibody Mix in Dilution Buffer: 4.86 μg/ml DyLight 647 Streptavidin (Pierce 21824); 1 μg/ml Lance Eu-Anti-Phosphotyrosine (PerkinElmer AD0069).
5 μl/well[…] is added and incubated at room temperature on shaker for 2 minutes.
[…] Antibody Mix is added and Incubated at room temperature on shaker for 2 minutes (4 hours to overnight total time).
Plates are read at 665 nm and 620 nm emission on Analyst GT protocol HTRF_SP_A or EnVision protocol Steve's TR-FRET.

mTOR = mTOR (Homo sapiens, UniProt P42345); experiment: mTOR HTR-FRET Assay; assay type: biochemical
Procedure, shortened: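 TOR enzyme fraction preincubated 30 min at room temperature with compound, then reaction started with GST-p70S6 kinase fragment substrate (97 nM working stock) plus ATP/Mn2+ and run 2 h at room temperature in Tris pH 7.4 buffer. Stopped with EDTA; phospho-substrate detected by HTRF antibody reagent after 5 h to overnight.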

Tyk2 = target: T2, Tyk2 (Homo sapiens, UniProt P29597); experiment: Tyk2 HTRF Assay; assay type: biochemical
T2 construct: 450 ng/ml TYK2 KD (Cama Biosciences 08-147 Lot 06CBS-3022D); purchased Cama Biosciences (so in the source)
T2 sequence (P29597 897-1176 limits assumed): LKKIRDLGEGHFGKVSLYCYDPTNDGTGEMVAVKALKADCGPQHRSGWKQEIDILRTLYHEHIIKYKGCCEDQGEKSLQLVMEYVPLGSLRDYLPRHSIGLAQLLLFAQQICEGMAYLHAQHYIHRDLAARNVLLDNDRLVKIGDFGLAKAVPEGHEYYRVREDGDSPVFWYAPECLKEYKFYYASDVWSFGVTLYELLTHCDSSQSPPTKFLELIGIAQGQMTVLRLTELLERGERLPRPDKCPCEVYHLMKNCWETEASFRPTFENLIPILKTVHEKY
Method: The following is an example of an assay that can be used to determine the Tyk2 inhibitory activity of a test compound.
25 μl/well DMSO is added to Columns 2 and 14 (except 28.5 μl is added to well P14 of Greiner 384-well polypropylene plate). 20 μl/well DMSO is added to all remaining wells.
5 mM compound solutions are added by addition of 5 μl of 30 mM compound to 25 μl DMSO in Columns 2 and 14 of plate. 1.5 mM reference control is prepared by addition of 1.5 μl of 30 mM JAK3 Inhibitor VI to 28.5 μl DMSO in Well P14.
Serial dilution is then performed by the following steps: (i) Compounds in Column 2 are mixed by pipetting 20 μl up and down 6X; (ii) 10 μl/well compounds in DMSO are transferred from one column to the next column for Columns 2-11; (iii) wells are mixed by pipetting 20 μl up and down 6×; (iv) tips are washed 3×25 μl DMSO, 2×25 μl next DMSO; (v) steps i-iv repeated for Columns 14-23.
as §1
Assay Buffer: 50 mM HEPES pH 7.6; 1 mM DTT; 10 mM MgCl2; 0.01% Triton X100; 0.01% BSA; and 0.1 mM EDTA.
Kinase in Assay Buffer: 450 ng/ml TYK2 KD (Cama Biosciences 08-147 Lot 06CBS-3022D).
Substrate/Detection Mixture (1×ATP) in Assay Buffer: 188 nM DyLight 647-Streptavidin (Pierce 21824); 5 μM Biotin-EQEDEPEGDYFEWLE (Lyn Substrate Peptide); 750 ng/ml Eu-anti-phospho-Tyrosine (PerkinElmer AD0069); 62.5 μM ATP; 80 nM Substrate Peptide (American Peptide Company 332722).
Substrate/Detection Mixture (20×ATP) in Assay Buffer: 188 nM DyLight 647-Streptavidin; 5 μM Biotin-EQEDEPEGDYFEWLE; 750 ng/ml Eu-anti-phospho-Tyrosine; 1250 μM ATP; 80 nM Substrate Peptide.
14.5 μl/well Enzyme Mix or Dilution Buffer (Background Controls) is added to Costar 384 well black plates.
Compound addition and mixture is performed by the following steps: (i) 0.5 μl/well DMSO/compounds in DMSO is transferred from Greiner 384-well polypropylene plate to a plate containing 14.5 μl/well Enzyme Mix and Dilution Buffer; (ii) mixed by pipetting 10 μl up and down 4×; (iii) tips are washed 4×10 μl in DMSO, 2×20 μl in other DMSO; (iv) steps i-iii are repeated until all plates are completed.
10 μl/well Substrate/Detection Mixtures is added and incubated at room temperature 2 hours (on shaker for first 2+ minutes).
10 μl/well 50 mM EDTA/0.01% Triton X100 is added and incubated >15 minutes at room temperature (on shaker for first 2+ minutes).
Plates are read at 665 nm and 620 nm emission on Analyst GT protocol HTRF_SP_A (Counts= 665/620×10000).

With COc1ccccc1-n1c(=O)[nH]c2c(C(N)=O)nc(-c3cccc(N)c3)nc21 [Compound 38, 2-(3-aminophenyl)-9-(2-methoxyphenyl)-8-oxo-8,9-dihydro-7H-purine-6-carboxamide] the IC50 (Syk) was > 30 µM and the melting point was 284 to 285 °C.
For CNC(=O)c1nc(-c2cccc(O)c2)nc2c1[nH]c(=O)n2-c1ccccc1OC [Compound 42, [2-(3-Hydroxyphenyl)-9-(2-methoxyphenyl)-8-oxo(7-hydropurin-6-yl)]-N-methylcarbox-amide], the IC50 (mTOR) was > 30 µM, the IC50 (Tyk2) was > 30 µM and the melting point was 339 °C.
For NC(=O)c1nc(-c2ccc3nc[nH]c3c2)nc2c1[nH]c(=O)n2-c1ccccc1F [Compound 101, 2-(1H-benzo[d]imidazol-6-yl)-9-(2-fluorophenyl)-8-oxo-8,9-dihydro-7H-purine-6-carboxamide], the IC50 (mTOR) was 0.1 to 5 µM, the IC50 (Syk) was 10.1 to 20 µM and the melting point was 278 °C.
With NC(=O)c1nc(-c2cccc(O)c2)nc2c1[nH]c(=O)n2-c1c(Cl)cccc1Cl [Compound 69, 9-(2,6-Dichlorophenyl)-2-(3-hydroxyphenyl)-8-oxo-7-hydropurine-6-carboxamide] the IC50 (mTOR) was 0.1 to 5 µM, the IC50 (Tyk2) was 0.1 to 5 µM and the melting point was 290 to 292 °C.
For COc1ccccc1-n1c(=O)[nH]c2c(C(N)=O)nc(-c3cccc(O)c3Cl)nc21 [Compound 54, 2-(2-Chloro-3-hydroxyphenyl)-9-(2-methoxyphenyl)-8-oxo-7-hydropurine-6-carbox amide], the IC50 (mTOR) was 0.1 to 5 µM, the IC50 (Syk) was 0.1 to 5 µM and the melting point was 331 to 334 °C.
NC(=O)c1nc(-c2cccc(O)c2)nc2c1[nH]c(=O)n2[C@H]1CC[C@H](O)CC1 [Compound 47, 9-(trans-4-Hydroxycyclohexyl)-2-(3-hydroxyphenyl)-8-oxo-8,9-dihydro-7H-purine-6-carboxamide] showed an IC50 (mTOR) of 0.1 to 5 µM, an IC50 (Tyk2) of 10.1 to 20 µM and a melting point of 366 to 368 °C.
In the case of COc1ccccc1-n1c(=O)[nH]c2c(C(N)=O)nc(-c3cccc4[nH]cnc34)nc21 [Compound 99, 2-(1H-benzo[d]imidazol-4-yl)-9-(2-methoxyphenyl)-8-oxo-8,9-dihydro-7H-purine-6-carboxamide], the IC50 (mTOR) is reported as > 30 µM, the IC50 (Tyk2) is reported as 0.1 to 5 µM and the melting point is reported as 312 °C.
With COc1ccccc1-n1c(=O)[nH]c2c(C(N)=O)nc(-c3cccc(O)c3F)nc21 [Compound 77, 2-(2-Fluoro-3-hydroxyphenyl)-9-(2-methoxyphenyl)-8-oxo-7-hydropurine-6-carbox-amide] the IC50 (mTOR) was 0.1 to 5 µM, the IC50 (Tyk2) was 0.1 to 5 µM and the melting point was > 300 °C.
